# Entries after “also recorded” stand apart in the source; their conditions may differ.
# Experiments:
# platelets [1] = assay: Ristocetin-induced vWF-dependent platelet aggregation in platelet-rich plasma; type: cell-based, human; conditions: PRP; agent added with subthreshold ristocetin (1 mg/mm [sic]) (or botrocetin); FIGS. 3B, 6A
# Description: (§1) Fresh blood from healthy volunteers was anticoagulated with 1/7 volume of ACD (2.5% trisodium citrate, 2% dextrose and 1.5% citric acid). Platelets were washed with CGS buffer (sodium chloride 0.12 M, trisodium citrate 0.0129 M and d-glucose 0.03 M, pH 6.5), resuspended in modified Tyrode's solution and allowed to incubate at 22° C. for 1 hours as previously described. In experiments using platelet-rich plasma (PRP), 1/10 volume of 3.8% trisodium citrate was used as anticoagulant. Platelet aggregation was measured using a turbidometric platelet aggregometer (Chrono-Log) at 37° C. vWF-dependent platelet aggregation was induced by addition of ristocetin or botrocetin to PRP. To differentiate CPIb-IX-mediated platelet agglutination from the second wave of integrin-dependent platelet aggregation, final concentrations of ristocetin were adjusted in each experiment to achieve a two-wave curve of aggregation. Washed platelets were used in platelet aggregation induced by a-thrombin (Enzyme Research Laboratories). To examine the effects of PKG, 100 μM of membrane permeable cGMP analogs, 8-bromo-cGMP or 8-dibutyl-cGMP (Calbiochem), or 1 μM sildenafil citrate (Pfizer) and added simultaneously with subthreshold concentrations of agonists. PKG inhibitors KT5823 (2 pM) and Rp-8PCPT-cGMP (0.2 mM) were preincubated with platelets at 37° C. for 5 minutes before addition of agonists.
# In FIG. 3A, platelet rich-plasma (PRP) was preincubated at 37° C. for 5 mm with PKG inhibitors KT5823 (2 pM) or Rp-8pCPT-cGMP (0.2 μM). PRP was also incubated with DMSO (vehicle for KT5823), a PKA inhibitor, KT5720 (2 pM), or buffer (Control). The vWF modulator, ristocetin, was then added to induce vWF-GPIb-IX interaction. […] In FIG. 3B, a subthreshold concentration of ristocetin was added to PRP immediately followed by addition of 8-bromo-cGMP or buffer (Control). PRP also was preincubated with integrin inhibitor RGDS before adding ristocetin and 8-bromo-cGMP. In FIG. 3C, platelets were preincubated with or without PKG inhibitor KT5823, then allowed to spread on vWF-coated glass chamber slides. Platelets were stained with an anti-GPIb antibody, and fluorescein-labeled secondary antibody. The slides were imaged under a confocal microscope (magnification =630×).
# (§2) In FIG. 6A, increasing concentrations of sildenafil or control 0.15 M NaCl solution were added to platelet-rich plasma followed by a subthreshold concentration of ristocetin. Platelet aggregation was recorded using a platelet aggregometer. In FIG. 6B, sildenafil or control buffer was added to washed platelets followed by addition of subthreshold doses of thrombin to induce platelet aggregation. It was noted that platelet aggregation occurs in the presence of sildenafil. The figure includes the representative results of at least three experiments.
# (§3) In FIG. 7A, PRP was preincubated with 0.1 mM 8-bromo-cGMP for increasing lengths of time at 37° C. as indicated. The vWF modulator, ristocetin (1.25 mg/ml), then was added to induce platelet aggregation in a turbidometric platelet aggregometer. In FIG. 7B, PRP was preincubated with a high concentration of 8-bromo-cGMP (1 mM) for 5 minutes. Ristocetin then was added to induce platelet aggregation. In FIGS. 7C and 7D, washed platelets in modified Tyrode's solution were preincubated with 1 mM 8-bromo-cGMP (C), or various concentrations of 8-pCPT-cGMP (D) at 37° C. for 5 minutes. Thrombin (0.05 u/ml) then was added to induce platelet aggregation.
# platelets [2] = assay: Platelet aggregation/activation in vitro with sildenafil by itself; type: cell-based, human
# platelets [3] = conditions: agonists ADP, collagen, A23 187, U46619, platelet activating factor; Ref. 38; cited from earlier work
# [4] = clinical reports, Refs. 39-42; cited from earlier work
# platelets [5] = assay: Low-dose α-thrombin-induced aggregation of washed platelets; type: cell-based, human; conditions: washed platelets; thrombin 0.02 units/ml; FIGS. 5B, 6B
# Description: as §1
# In FIG. 5A, washed platelets were preincubated with 40 pg/mi anti-GPIba monoclonal antibody SZ2, integrin inhibitor RGDS, or inhibitors of PKG, KT5823 (2 μM) or Rp-8pCPT-cGMP (0.2 mM) (Calbiochem), for 5 min. Platelets also were preincubated with DMSO (vehicle for KT5823), KT5720 or buffer (Control) as controls. α-Thrombin (0.05 units/mi) then was added to induce platelet aggregation. Nonspecific JgG and RGES peptides also were examined as additional controls, but had no effect (not shown). In FIG. 5B, a subthreshold dose of thrombin was added to platelets immediately followed by addition of PKG activator 8-bromo-cGMP or buffer (Control). Shown in the figure are the representative results of at least three experiments.
# as §2, §3
# [6] = test system: CHO cells expressing human platelet receptors; assay: Cell adhesion to immobilized vWF under flow; type: cell-based, Chinese Hamster; conditions: for stable adhesion of vector-transfected 123 cells to vWF under flow / stable adhesion of PKG-expressing 123 cells (123PKG) to vWF under flow: FIG. 2C, sildenafil 5 μM; for stable adhesion of PKG-expressing 123 cells (123PKG) to vWF under flow: RGDS 4 mM, 8-bromo-cGMP not shown
# Description: CHO cells expressing human platelet receptors were resuspended in modified Tyrode's buffer, pH 7.4, containing 1 mg/mi of bovine serum albumin (BSA) (see Ref. 46), and final cell count was 5×10^5/ml. […] Purified human vWF (10 μg/ml in 0.1 M NaHCO3, pH 8.3) was added to glass microcapillary tubes (inner diameter of 1.33 mm and a length of 7.2 cm), and incubated at 4° C. for 20 h. The vWF-coated microcapillary tubes then were incubated with 5% BSA. After washing, the cell suspension was aspirated through the tube by a syringe pump (Harvard Apparatus Inc.) at desired shear rates for 1.2 minutes and washed with modified Tyrode's buffer for additional 10 minutes at the same shear rates to remove transiently adherent cells. The experiments were continuously recorded on videotape using a video cassette recorder (model 9500, Sony). The number of stably adherent cell on immobilized vWF was counted on images obtained at 20 randomly selected positions in the vWF-coated tubes.
# In FIGS. 2A and B, vWF-coated capillary tubes were perfused with equivalent numbers (5×10^5/ml) of CHO cells expressing recombinant GPLb-JX alone (1b9), integrin αIIbβ3 alone (2b3a), both GPIb-IX and integrin αIIbβ3 (123) or expressing GPJb-JX, integrin α^IIbβ3 and PKG Ia (123PKG) at a shear rates of 800 s^−1 (A) or 1500 s^−1 (B) for 1.2 minutes, and then perfused with the modified Tyrodes buffer for 10 minutes at the same shear rates to wash out transient adherent cells. The expenments were recorded in real time. Cells stably adherent to vWF-coated capillary tubes at 20 randomly selected locations were counted.
# In FIG. 2C, vector-transfected 123 cells (123) or 123PKG cells also was perfused into vWF-coated glass capillary tubes as described in FIG. 2A in the absence or presence (+RGDS) of an integrin inhibitor RGDS peptide (4 mM) and in the absence (Control) or presence of cGMP-enhancing drug, sildenafil (5 μM). […] The experiments were repeated at least three times.
# [7] = identical flow conditions, not shown
compound,measurement,setting,value
CCCc1nn(C)c2c(=O)[nH]c(-c3cc(S(=O)(=O)N4CCN(C)CC4)ccc3OCC)nc12 [sildenafil],platelet aggregation together with a subthreshold concentration of ristocetin,platelets [1],induces platelet aggregation
same,platelet aggregation in vitro,"platelets [2]; sildenafil, not shown",did not inhibit
same,platelet activation by sildenafil by itself,platelets [2]; without platelet agonist,not sufficient to cause platelet activation
same,"platelet activation in vitro, sildenafil alone",platelets [3],did not inhibit; also recorded: does not inhibit
same,thrombotic events (myocardial infarction and cerebral thrombosis) in some patients,[4],associated with severe thrombotic events
same,platelet aggregation together with a subthreshold concentration of thrombin,platelets [5],induces platelet aggregation
same,stable adhesion of vector-transfected 123 cells to vWF under flow,[6],enhancing effects
same,stable adhesion of PKG-expressing 123 cells (123PKG) to vWF under flow,[6],enhanced
same,stable adhesion of PKG-expressing 123 cells (123PKG) to vWF under flow,[6]; listed as Sildenafil,significantly increased
same,stable adhesion of vector-transfected 123 cells to vWF under flow,[6]; listed as Sildenafil,significantly increased
same,stable adhesion of 1b9 cells (GPIb-IX alone) under flow,[6]; [7],no effect
same,stable adhesion of 2b3a cells (integrin αIIbβ3 alone) under flow,[6]; [7],no effect

# — patent US20040087539A1, “Method of treating conditions related to platelet activity” (priority 2003, published 2004)
